Test results published in the supplement of paper PMC13380429.

Tests used:
Conditions in all cases: 72 h
[1] = test system: Caco-2; test: cell viability relative to DMSO; higher = less toxic
[2] = test system: Calu-3; test: as above
[3] = test system: HepG2; test: as above
[4] = test system: U2OS; test: as above
[5] = test system: Vero E6; test: as above
[6] = test system: Caco-2; test: relative viability EC50 (midpoint between 100% and the lowest measured viability); higher = less toxic
[7] = test system: Calu-3; test: as above
[8] = test system: HepG2; test: as above
[9] = test system: U2OS; test: as above
[10] = test system: Vero E6; test: as above
[11] = test system: Caco-2; test: drug sensitivity score (DSS) for viability; higher = more toxic; extreme values may be limits of the assay
[12] = test system: Calu-3; test: as above
[13] = test system: HepG2; test: as above
[14] = test system: U2OS; test: as above
[15] = test system: Vero E6; test: as above

| SMILES | cell viability ([1]; 1 nM) | cell viability ([1]; 10 nM) | cell viability ([1]; 100 nM) | cell viability ([1]; 1000 nM) | cell viability ([1]; 10000 nM) | cell viability ([2]; 1 nM) | cell viability ([2]; 10 nM) | cell viability ([2]; 100 nM) | cell viability ([2]; 1000 nM) | cell viability ([2]; 10000 nM) | cell viability ([3]; 1 nM) | cell viability ([3]; 10 nM) | cell viability ([3]; 100 nM) | cell viability ([3]; 1000 nM) | cell viability ([3]; 10000 nM) | cell viability ([4]; 1 nM) | cell viability ([4]; 10 nM) | cell viability ([4]; 100 nM) | cell viability ([4]; 1000 nM) | cell viability ([4]; 10000 nM) | cell viability ([5]; 1 nM) | cell viability ([5]; 10 nM) | cell viability ([5]; 100 nM) | cell viability ([5]; 1000 nM) | cell viability ([5]; 10000 nM) | relative viability EC50 [6] | relative viability EC50 [7] | relative viability EC50 [8] | relative viability EC50 [9] | relative viability EC50 [10] | drug sensitivity score [11] | drug sensitivity score [12] | drug sensitivity score [13] | drug sensitivity score [14] | drug sensitivity score [15] |
| --- | --- | --- | --- | --- | --- | --- | --- | --- | --- | --- | --- | --- | --- | --- | --- | --- | --- | --- | --- | --- | --- | --- | --- | --- | --- | --- | --- | --- | --- | --- | --- | --- | --- | --- | --- |
| O=C1c2c(O)cccc2Cc2cccc(O)c21 [anthralin] | 102% | 95.8% | 97.3% | 96.9% | 93.4% | 103% | 98.5% | 89.8% | 95.9% | 108% | 90.2% | 103% | 119% | 105% | 92.3% | 92.3% | 97.6% | 97% | 98.8% | 102% | 102% | 88.7% | 96% | 78.3% | 100% | > 10 µM | > 10 µM | > 10 µM | > 10 µM | > 10 µM | 0 | 0 | 0 | 0 | 0 |
| C[N+]1([O-])[C@@H]2CC[C@H]1C[C@@H](OC(=O)C(CO)c1ccccc1)C2 (stereo not given in full) [atropine-oxide] | 84% | 96.6% | 99.3% | 90.2% | 93.9% | 97.6% | 93.3% | 98.6% | 94.4% | 102% | 88% | 99.2% | 95.8% | 98.6% | 94.5% | 97.4% | 107% | 101% | 102% | 96.5% | 88.2% | 103% | 102% | 111% | 95.5% | > 10 µM | > 10 µM | > 10 µM | > 10 µM | > 10 µM | 0 | 0 | 0 | 0 | 0 |
| C[C@H]1C[C@H]2[C@@H]3CCC4=CC(=O)C=C[C@]4(C)[C@@]3(Cl)[C@@H](O)C[C@]2(C)[C@@]1(O)C(=O)CO [beclomethasone] | 108% | 88.6% | 95.2% | 98.4% | 112% | 102% | 97.3% | 103% | 95.3% | 91.5% | 92.7% | 110% | 96.7% | 106% | 113% | 97.5% | 92.9% | 101% | 95.8% | 94% | 94.4% | 90.4% | 93.5% | 99.8% | 110% | > 10 µM | > 10 µM | > 10 µM | > 10 µM | > 10 µM | 0 | 0 | 0 | 0 | 0 |
| NC[C@H]1O[C@H](O[C@H]2[C@H](O)[C@@H](O[C@H]3O[C@H](CO)[C@@H](O)[C@H](N)[C@H]3O)[C@H](N)C[C@@H]2N)[C@H](N)[C@@H](O)[C@@H]1O [bekanamycin] | 103% | 101% | 95.9% | 110% | 100% | 111% | 93% | 97.8% | 111% | 97.3% | 94.7% | 97.8% | 103% | 94.4% | 99.1% | 95.7% | 103% | 97.5% | 101% | 97.7% | 98.1% | 102% | 99.2% | 97.4% | 108% | > 10 µM | > 10 µM | > 10 µM | > 10 µM | > 10 µM | 0 | 0 | 0 | 0 | 0 |
| O=C(O)c1ccc(NC(=O)[C@H](Cc2ccc(O)cc2)NC(=O)c2ccccc2)cc1 [bentiromide] | 92.1% | 92% | 92.3% | 87% | 104% | 107% | 101% | 104% | 95.4% | 95% | 91.9% | 116% | 102% | 106% | 102% | 105% | 102% | 107% | 99.5% | 108% | 93.5% | 107% | 94.4% | 99% | 106% | > 10 µM | > 10 µM | > 10 µM | > 10 µM | > 10 µM | 0 | 0 | 0 | 0 | 0 |
| CCCCCCCCCCCCC[N+](C)(C)Cc1ccccc1 [benzalkonium] | 102% | 102% | 110% | 108% | 19.5% | 104% | 98.9% | 97% | 98.8% | 37.3% | 96.1% | 108% | 102% | 116% | 22.9% | 97.7% | 91.8% | 102% | 92.9% | 13.7% | 89% | 101% | 96.1% | 105% | 92.4% | 3.62 µM | 3.02 µM | 3.95 µM | 2.49 µM | > 10 µM | 3.9 | 3.6 | 3.4 | 5.9 | 0 |
| C[N+](C)(C)CC(=O)O [betaine] | 99.7% | 90% | 93.5% | 96.9% | 87.1% | 101% | 95.8% | 106% | 91.4% | 98.7% | 96.3% | 89.1% | 108% | 98.6% | 106% | 99.5% | 102% | 98.8% | 104% | 96.7% | 115% | 100% | 104% | 107% | 98.9% | > 10 µM | > 10 µM | > 10 µM | > 10 µM | > 10 µM | 0 | 0 | 0 | 0 | 0 |
| CCCC(=O)N1CCCN(c2nc(N)c3cc(OC)c(OC)cc3n2)CC1 [bunazosin] | 108% | 96.4% | 101% | 101% | 99.7% | 102% | 101% | 105% | 92% | 115% | 94.7% | 99.3% | 103% | 94.3% | 99.3% | 95.4% | 103% | 101% | 96.7% | 98.2% | 104% | 105% | 102% | 99.3% | 97.3% | > 10 µM | > 10 µM | > 10 µM | > 10 µM | > 10 µM | 0 | 0 | 0 | 0 | 0 |
| O=C(O)/C=C/c1ccc(O)c(O)c1 [caffeic-acid] | 89% | 92.8% | 90.9% | 94.7% | 108% | 93.1% | 111% | 109% | 95% | 102% | 101% | 104% | 106% | 97.5% | 105% | 94% | 100% | 95.9% | 100% | 105% | 99.1% | 96.7% | 102% | 94.1% | 104% | > 10 µM | > 10 µM | > 10 µM | > 10 µM | > 10 µM | 0 | 0 | 0 | 0 | 0 |
| C[C@]12CCC(=O)C=C1C=C[C@@H]1[C@@H]2CC[C@@]2(C)[C@H]1CC[C@@]21CCC(=O)O1 [canrenone] | 96.6% | 100% | 88.4% | 99.1% | 91.7% | 102% | 111% | 98.5% | 104% | 95% | 106% | 94.5% | 89.1% | 95.4% | 97.5% | 101% | 101% | 93.2% | 106% | 95.8% | 99.3% | 106% | 101% | 104% | 101% | > 10 µM | > 10 µM | > 10 µM | > 10 µM | > 10 µM | 0 | 0 | 0 | 0 | 0 |
| N[C@@H](C(=O)N[C@@H]1C(=O)N2C(C(=O)O)=C(Cl)CS[C@H]12)c1ccccc1 [cefaclor] | 94.7% | 98% | 88.9% | 97.1% | 92.6% | 97.1% | 99% | 102% | 102% | 98.5% | 96.4% | 102% | 100% | 104% | 98.5% | 101% | 103% | 99.3% | 98% | 98.2% | 97% | 98.3% | 101% | 95.8% | 94.7% | > 10 µM | > 10 µM | > 10 µM | > 10 µM | > 10 µM | 0 | 0 | 0 | 0 | 0 |
| OC[C@@H](O)[C@H]1O[C@@H]2O[C@H](C(Cl)(Cl)Cl)O[C@@H]2[C@H]1O [chloralose] | 101% | 103% | 80.5% | 101% | 87.4% | 93.7% | 93.8% | 95.5% | 104% | 98.8% | 98.1% | 103% | 102% | 98.9% | 89.2% | 98.1% | 106% | 98.5% | 99.6% | 98.4% | 98.1% | 99% | 98.8% | 95.9% | 97.8% | > 10 µM | > 10 µM | > 10 µM | > 10 µM | > 10 µM | 0 | 0 | 0 | 0 | 0 |
| CC(C)NCC(O)c1ccc(N)c(C#N)c1 (stereo not given) [cimaterol] | 96% | 93.2% | 94.2% | 89.8% | 102% | 102% | 93.2% | 101% | 99.2% | 96.6% | 110% | 91.6% | 96.6% | 91.7% | 94.1% | 100% | 99.4% | 106% | 97% | 105% | 105% | 104% | 96.6% | 103% | 99.2% | > 10 µM | > 10 µM | > 10 µM | > 10 µM | > 10 µM | 0 | 0 | 0 | 0 | 0 |
| Clc1ccc(C(OCCN2CCCCC2)c2ccccc2)cc1 (stereo not given) [cloperastine] | 99% | 94.9% | 114% | 116% | 79.9% | 101% | 93.5% | 129% | 100% | 100% | 111% | 109% | 115% | 96.4% | 84.1% | 99.4% | 96.7% | 97.1% | 99.6% | 95.4% | 93.7% | 96.4% | 100% | 97% | 86.6% | > 10 µM | > 10 µM | > 10 µM | > 10 µM | > 10 µM | 0.3 | 0 | 0.6 | 0 | 0.3 |
